# Assay results published in patent US8097607B2, “Low dose rifalazil compositions” (priority 2002, dated 2012).
# Key:
# [1] = Clinical trial: pharmacokinetics of rifalazil in plasma after single oral doses; conditions: for AUC / CL/F / Cmax / half-life: male, human, in vivo, po; for half-life / K10 / K12 / K21 / V1/F / Vdβ/F: males
# [2] = system: mycobacterium species; conditions: 1 to 100 mg once or twice weekly; cited from earlier work
# [3] = cited from earlier work
smiles,measurement,setting,value
"CO[C@H]1/C=C/O[C@@]2(C)Oc3c(C)c(O)c4c(=O)c(c5oc6cc(N7CCN(CC(C)C)CC7)cc(O)c6nc-5c4c3C2=O)NC(=O)/C(C)=C\C=C\[C@H](C)[C@H](O)[C@@H](C)[C@@H](O)[C@@H](C)[C@H](OC(C)=O)[C@@H]1C [rifalazil, Rifalazil]",AUC,[1]; 2.5 mg,185 ng·h/mL
same,CL/F,[1]; 2.5 mg,3 mL/min/kg
same,Cmax,[1]; 2.5 mg,7.9 ng/mL
same,half-life,"[1]; 2.5 mg, Absorption t½, single 2.5 mg oral dose",0.67 h
same,half-life,"[1]; 2.5 mg, Distribution t½, single 2.5 mg oral dose",7.3 h
same,half-life,"[1]; 2.5 mg, Elimination t½, single 2.5 mg oral dose",139 h
same,AUC,[1]; 50 mg,1350 ng·h/mL
same,CL/F,[1]; 50 mg,8.17 mL/min/kg
same,Cmax,[1]; 50 mg,57.3 ng/mL
same,half-life,"[1]; 50 mg, Absorption t½, single 50 mg oral dose",0.5 h
same,half-life,"[1]; 50 mg, Distribution t½, single 50 mg oral dose",11.6 h
same,half-life,"[1]; 50 mg, Elimination t½, single 50 mg oral dose",116 h
same,K10,[1]; single 2.5 mg oral dose,0.045 h⁻¹
same,K12,[1]; single 2.5 mg oral dose,0.044 h⁻¹
same,K21,[1]; single 2.5 mg oral dose,0.011 h⁻¹
same,V1/F,[1]; single 2.5 mg oral dose,4.08 L/kg
same,Vdβ/F,[1]; single 2.5 mg oral dose,36.0 L/kg
same,K10,[1]; single 50 mg oral dose,0.039 h⁻¹
same,K12,[1]; single 50 mg oral dose,0.018 h⁻¹
same,K21,[1]; single 50 mg oral dose,0.009 h⁻¹
same,V1/F,[1]; single 50 mg oral dose,12.7 L/kg
same,Vdβ/F,[1]; single 50 mg oral dose,82.4 L/kg
same,efficacy against mycobacterium species,[2],efficacious
same,"incidence of adverse reactions (headaches, fevers, flu-like symptoms)",[3]; 1 to 100 mg once or twice weekly,"reduced, but did not eliminate"
same,adverse reactions,"[3]; clinical trials, daily administration, 10 mg per day to 10 g per day",many adverse reactions occurred
